Earlier results, collected in patent US20020177579A1, “Extended release formulation of water-soluble drugs” (priority 2000, published 2002).
Counter-ions that a name gives are not always drawn.

Legend:
[1] = for Fraction Absorbed: in vivo

SMILES	Fraction Absorbed [1]	Solubility (in words)	also measured
CCOC(=O)[C@H](CCc1ccccc1)N[C@H]1CCc2ccccc2N(CC(=O)O)C1=O.Cl [Benazepril HCI]	37%	–	Solubility: >100 mg/mL
CNS(=O)(=O)Cc1ccc2[nH]cc(CCN(C)C)c2c1 [Sumatriptan Succinate]	15%	“Readily	–
CCC(=O)O[C@@H](O[P@](=O)(CCCCc1ccccc1)CC(=O)N1C[C@H](C2CCCCC2)C[C@H]1C(=O)O)C(C)C [Fosinopril Sodium]	36%	–	Solubility: 100 mg/mL
COCCc1ccc(OCC(O)CNC(C)C)cc1 (centres unmarked) [Metoprolol Succinate]	–	“Freely	–
CCOC(=O)[C@H](CCc1ccccc1)N[C@@H](C)C(=O)N1Cc2ccccc2C[C@H]1C(=O)O [Quinapril HCI]	60%	“Freely	–
COc1ccc([C@@H]2Sc3ccccc3N(CCN(C)C)C(=O)[C@@H]2OC(C)=O)cc1 [Diltiazem hydrochloride, 1,5-benzothiazepin-4 (5H) one, 3-(acetyloxy)-5-[2-(dimethylamino)ethyl]-2,3-dihydro-2-(4-methoxyphenyl)-, monohydrochloride, (+)-cis-4]	–	–	solubility in 100% ethanol (100% ethanol): slightly soluble; solubility in benzene (benzene): not soluble; solubility in chloroform (chloroform): freely soluble; solubility in methanol (methanol): freely soluble; solubility in water (water): freely soluble; absolute bioavailability ([1]; compared to intravenous administration): about 40%
CN1C2CCCC1CC(NC(=O)c1nn(C)c3ccccc13)C2 (centres unmarked) [Granisetron HCI]	˜90%	“Readily	–
